Data on 3 compounds can be found in patent US6084081A, “Lewis X derivatives” (Daikin Industries, Ltd., priority 1996, dated 2000).

One series deals with T1, P-selectin (Homo sapiens, UniProt P16109).
T1 sequence (P16109 42-830): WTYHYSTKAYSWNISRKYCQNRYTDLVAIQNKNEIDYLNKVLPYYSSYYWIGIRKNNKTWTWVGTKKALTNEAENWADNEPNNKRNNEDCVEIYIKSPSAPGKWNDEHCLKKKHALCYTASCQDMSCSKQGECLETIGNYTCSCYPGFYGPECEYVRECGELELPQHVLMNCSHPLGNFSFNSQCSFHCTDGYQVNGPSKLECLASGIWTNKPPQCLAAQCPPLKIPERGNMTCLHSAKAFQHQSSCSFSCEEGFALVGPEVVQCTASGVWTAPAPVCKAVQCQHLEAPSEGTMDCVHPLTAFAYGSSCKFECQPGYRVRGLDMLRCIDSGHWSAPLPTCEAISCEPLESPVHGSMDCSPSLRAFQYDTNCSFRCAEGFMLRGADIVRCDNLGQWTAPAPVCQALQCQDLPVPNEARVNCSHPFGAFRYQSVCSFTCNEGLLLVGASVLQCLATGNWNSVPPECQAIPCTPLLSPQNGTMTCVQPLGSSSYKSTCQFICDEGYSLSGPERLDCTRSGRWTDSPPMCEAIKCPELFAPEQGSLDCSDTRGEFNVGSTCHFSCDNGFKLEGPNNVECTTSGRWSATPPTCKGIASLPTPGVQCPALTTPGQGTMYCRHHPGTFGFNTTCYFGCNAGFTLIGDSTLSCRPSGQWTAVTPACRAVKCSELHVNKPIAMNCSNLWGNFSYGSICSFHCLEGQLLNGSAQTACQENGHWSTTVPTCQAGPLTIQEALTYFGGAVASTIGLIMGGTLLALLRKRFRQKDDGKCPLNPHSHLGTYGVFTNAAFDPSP
The following applies: relative to sugar chain (3); cited from earlier work.

The next series concerns the target T2, α-fucosidase (Bos taurus, UniProt Q2KIM0).
T2 construct: purchased Wako Pure Chemical Industries, Ltd
T2 sequence (Q2KIM0 23-468): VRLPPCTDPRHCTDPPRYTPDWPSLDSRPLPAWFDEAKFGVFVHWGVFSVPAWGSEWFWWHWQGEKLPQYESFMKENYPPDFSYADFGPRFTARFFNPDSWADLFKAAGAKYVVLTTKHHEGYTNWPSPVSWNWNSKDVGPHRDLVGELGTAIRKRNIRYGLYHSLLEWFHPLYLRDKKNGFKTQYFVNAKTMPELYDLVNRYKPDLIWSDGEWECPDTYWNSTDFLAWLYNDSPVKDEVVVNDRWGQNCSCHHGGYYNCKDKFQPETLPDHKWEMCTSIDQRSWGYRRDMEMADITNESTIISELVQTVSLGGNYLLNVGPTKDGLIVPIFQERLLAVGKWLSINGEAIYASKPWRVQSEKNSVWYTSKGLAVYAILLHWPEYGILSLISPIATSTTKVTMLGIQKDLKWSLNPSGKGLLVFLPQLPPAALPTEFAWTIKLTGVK
Put plainly: Metabolic stability test: substrate decomposition reaction by α-fucosidase (remaining substrate by TLC). The series is classed as in vitro ADME. Here is the method: The TLC plate was developed until the reaction solution front moved 2 cm (developing solvent; n-butanol:acetic acid:water=8:5:4). After immersion in phosphomolybdic acid.phosphoric acid.sulfonic acid mixed aqueous solution, the plate was heated to develop colors and the amount of the remaining substrate was measured.

Series [1] relates to acute pulmonary inflammation induced using a cobra venom factor. The following applies: rats, Mulligan et al., Nature 364, 149 (1993); cited from earlier work.

With “1-deoxy sialyl Lewis X [sugar chain (4)]”, the “inhibitory activity against P-selectin, times as potent as sugar chain (3)” value on P-selectin is recorded as “about 20 times”.

As to `CCCCCCCCCCCCCC=CC(O)C(COC1OC(CO)C(OC2OC(CO)C(O)C(OC3OC(CF)C(OC4OC(CO)C(O)C(OC5(C(=O)O)CC(O)C(NC(C)=O)C(C(O)C(O)CO)O5)C4O)C(OC4OC(C)C(O)C(O)C4O)C3NC(C)=O)C2O)C(O)C1O)NC(=O)CCCCCCCCCCCCCCCCC` [Compound 24, O-(5-Acetamide-3,5-dideoxy-D-glycero-α-D-galacto-2-nonulopyranosylonic acid)-(2→3)-O-β-D-glucopyranosyl-(1→4)-O-[α-L-fucopyranosyl-(1→3)]-O-(2-acetamide-2,6-dideoxy-6-fluoro-β-D-galactopyranosyl)-(1→3)-O-β-D-galactopyranosyl)-(1→4)-β-D-glucopyranosyl-(1→1)(2S, 3R, 4E)-2-octadecaneamide-4-octadecene-1,3-diol], on α-fucosidase (in the presence of α-fucosidase), the “stability against decomposition by α-fucosidase (in words)” value is listed as “more strongly resists the decomposition by α-fucosidase than a natural Ganglioside”. On α-fucosidase (α-fucosidase, time 0 min), the “Remaining Syalyl Lewis X (%)” value is listed as 100%.

“sialyl Lewis X sugar chain [sialyl Lewis X sugar chain (3)]”: the “effect on acute pulmonary inflammation (in words)” value in series [1] is reported as “ameliorates acute pulmonary inflammation”.
